We go through twelve compounds from patent publication US8614223B2, “Pyrimidine hydroxy amide compounds as protein deacetylase inhibitors and methods of use thereof” (Acetylon Pharmaceuticals, Inc., priority 2010, dated 2013).

In test [1] the target is HDAC2 (Homo sapiens (Human), UniProt Q92769). Kind of test: HDAC enzyme assay, HDAC2. Conditions: for HDAC2 fold over HDAC6 IC50 (selectivity for HDAC6): ratio HDAC2/HDAC6.
For test [2], the target named is HDAC3 (Homo sapiens (Human), UniProt O15379). As to the kind of experiment: HDAC enzyme assay, HDAC3. Conditions: for HDAC3 fold over HDAC6 IC50 (selectivity for HDAC6): ratio HDAC3/HDAC6.
The target of test [3] is T1, HDAC6 (Homo sapiens (Human), UniProt Q9UBN7). Kind of test: biochemical.
The target of test [4] is HDAC1 (Homo sapiens (Human), UniProt Q13547). Kind of test: HDAC enzyme assay, HDAC1. Conditions: for HDAC1 fold over HDAC6 IC50 (selectivity for HDAC6): ratio HDAC1/HDAC6.
Test [5] concerns the target T1, HDAC6. Conditions: read-out: HDAC6 IC50.
In test [6] the test system is refractory relapsed MM. As to conditions: 202 patients with refractory relapsed MM; cited from earlier work.

Molecules are shown by their SMILES. Read-outs that look alike come from different tables or passages of the source.

Sequence of HDAC2 (Q92769 whole entry): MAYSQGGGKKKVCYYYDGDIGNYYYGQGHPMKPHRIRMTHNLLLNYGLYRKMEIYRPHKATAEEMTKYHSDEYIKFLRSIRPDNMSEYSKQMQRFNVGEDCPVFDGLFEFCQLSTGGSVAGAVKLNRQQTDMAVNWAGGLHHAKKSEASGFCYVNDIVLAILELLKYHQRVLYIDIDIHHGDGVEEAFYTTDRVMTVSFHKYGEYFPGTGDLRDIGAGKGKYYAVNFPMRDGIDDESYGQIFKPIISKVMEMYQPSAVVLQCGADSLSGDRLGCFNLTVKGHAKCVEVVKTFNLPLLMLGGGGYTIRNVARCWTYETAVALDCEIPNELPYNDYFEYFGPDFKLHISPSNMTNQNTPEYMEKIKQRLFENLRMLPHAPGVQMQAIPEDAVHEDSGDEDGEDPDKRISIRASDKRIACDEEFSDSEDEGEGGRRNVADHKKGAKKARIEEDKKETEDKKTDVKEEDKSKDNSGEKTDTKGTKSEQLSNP
Sequence of HDAC3 (O15379 whole entry): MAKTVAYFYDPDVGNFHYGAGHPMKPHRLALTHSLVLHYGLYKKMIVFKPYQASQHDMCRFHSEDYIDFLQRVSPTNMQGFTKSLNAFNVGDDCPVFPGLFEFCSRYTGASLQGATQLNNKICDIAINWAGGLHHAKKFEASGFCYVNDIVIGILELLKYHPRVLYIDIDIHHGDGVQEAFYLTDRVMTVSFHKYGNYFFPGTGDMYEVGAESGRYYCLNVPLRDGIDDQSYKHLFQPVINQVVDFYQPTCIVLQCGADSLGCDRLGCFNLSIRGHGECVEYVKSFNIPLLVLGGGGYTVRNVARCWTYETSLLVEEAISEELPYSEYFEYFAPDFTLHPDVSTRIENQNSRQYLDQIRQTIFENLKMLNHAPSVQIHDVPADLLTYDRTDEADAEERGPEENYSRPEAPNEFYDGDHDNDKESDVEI
Sequence of HDAC3 (Q9Y618 395-489 partner): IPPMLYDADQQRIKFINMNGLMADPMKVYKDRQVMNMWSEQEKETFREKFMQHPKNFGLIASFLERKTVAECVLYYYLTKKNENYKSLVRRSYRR
T1 sequence (Q9UBN7 whole entry): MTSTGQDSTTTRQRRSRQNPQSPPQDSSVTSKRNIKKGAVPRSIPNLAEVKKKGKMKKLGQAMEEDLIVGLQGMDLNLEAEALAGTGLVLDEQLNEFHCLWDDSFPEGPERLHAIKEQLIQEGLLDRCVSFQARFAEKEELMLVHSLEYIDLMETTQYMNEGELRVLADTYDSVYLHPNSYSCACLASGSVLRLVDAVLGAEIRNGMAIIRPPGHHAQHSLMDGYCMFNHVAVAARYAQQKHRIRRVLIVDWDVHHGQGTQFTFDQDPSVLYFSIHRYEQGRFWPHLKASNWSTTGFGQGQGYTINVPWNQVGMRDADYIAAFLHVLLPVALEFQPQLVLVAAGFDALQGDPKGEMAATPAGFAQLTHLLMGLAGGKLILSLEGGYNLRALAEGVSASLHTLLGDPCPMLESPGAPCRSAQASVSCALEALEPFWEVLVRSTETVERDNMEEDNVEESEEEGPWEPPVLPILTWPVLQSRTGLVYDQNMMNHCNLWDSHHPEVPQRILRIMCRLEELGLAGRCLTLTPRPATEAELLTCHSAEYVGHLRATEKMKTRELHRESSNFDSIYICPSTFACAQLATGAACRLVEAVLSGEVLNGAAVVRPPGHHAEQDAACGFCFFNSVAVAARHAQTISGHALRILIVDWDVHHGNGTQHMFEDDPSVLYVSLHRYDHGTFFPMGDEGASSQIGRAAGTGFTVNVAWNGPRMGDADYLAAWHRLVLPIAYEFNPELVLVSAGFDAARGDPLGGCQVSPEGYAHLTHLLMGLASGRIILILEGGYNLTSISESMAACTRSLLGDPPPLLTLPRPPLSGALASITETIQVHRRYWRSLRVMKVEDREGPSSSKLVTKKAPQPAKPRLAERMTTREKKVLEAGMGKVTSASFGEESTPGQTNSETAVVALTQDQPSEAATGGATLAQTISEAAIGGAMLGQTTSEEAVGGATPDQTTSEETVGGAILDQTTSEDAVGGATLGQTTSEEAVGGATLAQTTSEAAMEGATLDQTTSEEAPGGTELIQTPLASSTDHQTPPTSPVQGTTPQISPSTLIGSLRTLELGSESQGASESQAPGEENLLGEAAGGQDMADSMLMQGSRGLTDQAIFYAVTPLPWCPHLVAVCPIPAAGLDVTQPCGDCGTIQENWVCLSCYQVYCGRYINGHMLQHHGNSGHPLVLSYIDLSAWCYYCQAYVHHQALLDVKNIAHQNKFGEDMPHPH
Sequence of HDAC1 (Q13547 whole entry): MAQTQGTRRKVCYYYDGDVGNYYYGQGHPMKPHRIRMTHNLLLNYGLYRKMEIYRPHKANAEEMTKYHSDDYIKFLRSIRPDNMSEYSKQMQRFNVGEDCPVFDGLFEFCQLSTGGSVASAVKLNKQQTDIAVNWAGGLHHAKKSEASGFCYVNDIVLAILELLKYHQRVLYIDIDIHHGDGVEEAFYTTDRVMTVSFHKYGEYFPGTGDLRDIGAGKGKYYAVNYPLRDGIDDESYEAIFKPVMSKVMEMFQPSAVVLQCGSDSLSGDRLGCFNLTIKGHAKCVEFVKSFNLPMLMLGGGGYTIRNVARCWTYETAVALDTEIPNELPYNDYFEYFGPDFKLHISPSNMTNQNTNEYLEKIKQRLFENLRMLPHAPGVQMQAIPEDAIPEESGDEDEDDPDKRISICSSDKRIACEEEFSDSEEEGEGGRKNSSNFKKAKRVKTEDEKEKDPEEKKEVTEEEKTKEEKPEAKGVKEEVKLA

The IC50 is the midpoint of a concentration-inhibition curve. Turning to `COc1ccc(C2(Nc3ncc(C(=O)NO)cn3)CC2)cc1` [Compound 97], in test [1], it took 28 nM to reach half-maximal inhibition (IC50) and the “HDAC2 fold over HDAC6 IC50 (selectivity for HDAC6)” value is “(12.1x)”. Besides, in test [2], the IC50 turned out to be 37 nM and the “HDAC3 fold over HDAC6 IC50 (selectivity for HDAC6)” value was “(16.4x)”. In test [3], this compound returned an IC50 of 2 nM. In test [4], the IC50 stood at 19 nM and the “HDAC1 fold over HDAC6 IC50 (selectivity for HDAC6)” value is “(8.3x)”.

For `O=C(NO)c1cnc(NC2(c3ccc(F)cc3Cl)CC2)nc1` [Compound 144], the IC50 in test [5] was determined as 3 nM; in test [1] (read-out: HDAC2 IC50), 34 nM; in test [2] (read-out: HDAC3 IC50), 58 nM; in test [4] (read-out: HDAC1 IC50) it was 25 nM. For the same compound, the “HDAC2 fold over HDAC6 IC50 (selectivity for HDAC6)” value in test [1] is given as “(10.8x)”. Further, the “HDAC3 fold over HDAC6 IC50 (selectivity for HDAC6)” value in test [2] is reported as “(18.3x)”. Besides, the “HDAC1 fold over HDAC6 IC50 (selectivity for HDAC6)” value in test [4] was “(7.9x)”.

As to `O=C(NO)c1cnc(NC2(c3cc(C(F)(F)F)cc(C(F)(F)F)c3)CC2)nc1` [Compound 145], the IC50 turned out to be 6 nM in test [5], 135 nM in test [1] (read-out: HDAC2 IC50), 384 nM in test [2] (read-out: HDAC3 IC50) and 104 nM in test [4] (read-out: HDAC1 IC50). For the same compound, the “HDAC2 fold over HDAC6 IC50 (selectivity for HDAC6)” value in test [1] is on record as “(23.5x)”. Also, in test [2], the “HDAC3 fold over HDAC6 IC50 (selectivity for HDAC6)” value is “(66.6x)”. The “HDAC1 fold over HDAC6 IC50 (selectivity for HDAC6)” value in test [4] was “(18.1x)”.

On to `Cc1cc(C(F)(F)F)cc(C2(Nc3ncc(C(=O)NO)cn3)CC2)c1` [Compound 147], for which the IC50 in test [5] was determined as 3 nM; in test [1] (read-out: HDAC2 IC50) it was 73 nM; in test [2] (read-out: HDAC3 IC50), 189 nM; in test [4] (read-out: HDAC1 IC50), 64 nM. Moreover, the “HDAC2 fold over HDAC6 IC50 (selectivity for HDAC6)” value in test [1] is given as “(20.9x)”. For the same compound, the “HDAC3 fold over HDAC6 IC50 (selectivity for HDAC6)” value in test [2] was “(54x)”. Moreover, in test [4], the “HDAC1 fold over HDAC6 IC50 (selectivity for HDAC6)” value is reported as “(18.2x)”.

With `O=C(NO)c1cnc(NC2(c3ccc(F)cc3)CCCC2)nc1` [Compound 148], the IC50 came to 3 nM in test [5], 615 nM in test [1] (read-out: HDAC2 IC50), 2160 nM in test [2] (read-out: HDAC3 IC50) and 583 nM in test [4] (read-out: HDAC1 IC50). For the same compound, in test [1], the “HDAC2 fold over HDAC6 IC50 (selectivity for HDAC6)” value was “(193.1x)”. Also, the “HDAC3 fold over HDAC6 IC50 (selectivity for HDAC6)” value in test [2] is given as “(677.2x)”. The “HDAC1 fold over HDAC6 IC50 (selectivity for HDAC6)” value in test [4] was “(182.9x)”.

As to `O=C(NO)c1cnc(NC2(c3cccc(F)c3)CCOCC2)nc1` [Compound 149], the IC50 in test [5] was 4 nM; in test [1] (read-out: HDAC2 IC50), 330 nM; in test [2] (read-out: HDAC3 IC50), 1320 nM; in test [4] (read-out: HDAC1 IC50), 339 nM. Besides, the “HDAC2 fold over HDAC6 IC50 (selectivity for HDAC6)” value in test [1] was “(78x)”. In addition, in test [2], the “HDAC3 fold over HDAC6 IC50 (selectivity for HDAC6)” value was “(312.9x)”. Besides, in test [4], the “HDAC1 fold over HDAC6 IC50 (selectivity for HDAC6)” value was “(80.1x)”.

Regarding `O=C(NO)c1cnc(NC2(c3ccc(F)cc3)CCOCC2)nc1` [Compound 150], the IC50 in test [5] worked out at 5 nM; in test [1] (read-out: HDAC2 IC50) it was 330 nM; in test [2] (read-out: HDAC3 IC50), 1780 nM; in test [4] (read-out: HDAC1 IC50), 320 nM. Further, in test [1], the “HDAC2 fold over HDAC6 IC50 (selectivity for HDAC6)” value is listed as “(68.4x)”. For the same compound, the “HDAC3 fold over HDAC6 IC50 (selectivity for HDAC6)” value in test [2] is recorded as “(367.7x)”. Moreover, in test [4], the “HDAC1 fold over HDAC6 IC50 (selectivity for HDAC6)” value is reported as “(66.1x)”.

As for `O=C(NO)c1cnc(NC2(c3cccc(F)c3)CCCC2)nc1` [Compound 151], the IC50 in test [5] amounted to 3 nM; in test [1] (read-out: HDAC2 IC50), 476 nM; in test [2] (read-out: HDAC3 IC50) it was 1370 nM; in test [4] (read-out: HDAC1 IC50) it was 584 nM. In test [1], the “HDAC2 fold over HDAC6 IC50 (selectivity for HDAC6)” value is listed as “(143.8x)”. Moreover, the “HDAC3 fold over HDAC6 IC50 (selectivity for HDAC6)” value in test [2] is given as “(414.9x)”. Further, in test [4], the “HDAC1 fold over HDAC6 IC50 (selectivity for HDAC6)” value was “(176.6x)”.

As for `COc1ccc(C2(Nc3ncc(C(=O)NO)cn3)CCCC2)cc1` [Compound 152], the IC50 in test [5] amounted to 4 nM; in test [1] (read-out: HDAC2 IC50), 220 nM; in test [2] (read-out: HDAC3 IC50) it was 649 nM; in test [4] (read-out: HDAC1 IC50), 248 nM. In test [1], the “HDAC2 fold over HDAC6 IC50 (selectivity for HDAC6)” value was “(10.1x)”. Further, in test [2], the “HDAC3 fold over HDAC6 IC50 (selectivity for HDAC6)” value is listed as “(29.9x)”. Also, the “HDAC1 fold over HDAC6 IC50 (selectivity for HDAC6)” value in test [4] is “(11.4x)”.

For `O=C(NO)c1cnc(NC2(c3cccs3)CCCCC2)nc1` [Compound 154], the IC50 in test [5] was 5 nM; in test [1] (read-out: HDAC2 IC50) it was 1600 nM; in test [2] (read-out: HDAC3 IC50) it was 3360 nM; in test [4] (read-out: HDAC1 IC50) it was 1370 nM. In addition, the “HDAC2 fold over HDAC6 IC50 (selectivity for HDAC6)” value in test [1] is on record as “(307.8x)”. The “HDAC3 fold over HDAC6 IC50 (selectivity for HDAC6)” value in test [2] is “(647.4x)”. Also, the “HDAC1 fold over HDAC6 IC50 (selectivity for HDAC6)” value in test [4] is given as “(263.9x)”.

Take `O=C(NO)c1cnc(NC2(c3cc(F)cc(F)c3)CCOCC2)nc1` [Compound 155]: the IC50 amounted to 7 nM in test [5], 236 nM in test [1] (read-out: HDAC2 IC50), 1220 nM in test [2] (read-out: HDAC3 IC50) and 262 nM in test [4] (read-out: HDAC1 IC50). Moreover, the “HDAC2 fold over HDAC6 IC50 (selectivity for HDAC6)” value in test [1] is listed as “(34x)”. The “HDAC3 fold over HDAC6 IC50 (selectivity for HDAC6)” value in test [2] is “(176x)”. Also, the “HDAC1 fold over HDAC6 IC50 (selectivity for HDAC6)” value in test [4] is “(37.9x)”.

Regarding `CC(C)C[C@H](NC(=O)[C@H](Cc1ccccc1)NC(=O)c1cnccn1)B(O)O` [bortezomib], in test [6], the “complete and near complete responses” value was 10%; the “patients did not respond” value is given as 65%; the responses is 35%.
